Read-outs that look alike come from different tables or passages of the source.
Biological target: TNFα (Homo sapiens, UniProt P01375)
Experiment: HEK-Blue hTNFα reporter assay
Type: cell-based
Set-up: purchased R&D biosystem (R&D Systems) 210-TA-020/CF
Conditions: HEK-Blue hTNFα reporter cells; for Emax: read-out: TNFα reporter, Emax
Excerpt: Stimulation of HEK293 cells by TNFα leads to activation of the NF-κB pathway. The potency of compounds was examined in HEK-Blue™ hTNFα reporter cells (Invivogen, Cat #hkb-tnfdmyd). HEK-Blue™ TNFα cells were generated by stable transfection of HEK293 cell line with a SEAP reporter gene under the control of the […] minimal promoter fused to NF-κB binding sites. Stimulation of HEK-Blue™ TNFα cells with TNFα triggers the activation of the NF-κB-inducible promoter and the production of SEAP. Levels of SEAP in the supernatant can be easily determined using QUANTI-Blue™ Solution (Invivogen, cat #rep-qbs) by reading the OD at 620-655 nm.
HEK-Blue™ TNFα cells were cultured in DMEM supplemented with 10% FBS, 100p/mL penicillin, 100 μg/mL streptomycin, 100 μg/mL normocin, 1 μg/mL puromycin, and 100 μg/mL zeocin. The culture was maintained in culture incubator with 5% CO2 at 37° C. When used for assay, the cells were gently rinsed twice with pre-warmed phosphate buffered saline (PBS) and detached in presence of PBS by tapping the flask or by using a cell scraper. The cells were spun to remove PBS and resuspended in fresh, pre-warmed test medium (DMEM supplemented with 10% FBS, 100p/mL penicillin, and 100 μg/mL streptomycin). A serial dilution of work solution of tested compound was made in DMSO with 1000× of final concentration, and 40 nL of compound DMSO solution was transferred into 384-well plates (Corning 3764) by Echo, and incubated with 10 μL of recombinant hTNFα (R&D biosystem, Cat #210-TA-020/CF) for 1 h at 37° C. The compound/hTNFα mixture well received 30 μL HEK-Blue™ TNFα cell suspension at 10000 cells/well, and then incubated at 37° C. with 5% CO2 for 24 h. The final concentration of hTNFα is […]. After incubation, 5 μL of induced cell supernatant was transferred to a new 384-well plate well (Coring 3764) to mix with 45 μL of QUANTI-Blue Solution. After 1 h incubation at 37° C., the plate was read using a spectrophotometer at 620 nm.
The percentage of inhibition was calculated by the following formula: % inhibition=(positive control−Sample)/(positive control−negative control)*100 • Positive control: OD620 reading of cells with hTNFα stimulation. • Negative control: OD620 reading of cells without hTNFα stimulation. • Sample: OD620 reading of cells with compound at specific concentration and hTNFα stimulation
The % inhibition was plotted against compound concentration in logarithmic scale and the IC50 was rendered using 4-parameter nonlinear regression (GraphPad Prism).

[1] = SEAP readout, read-out: IC50 Range

Chain of TNFα (P01375 77-233 limits assumed): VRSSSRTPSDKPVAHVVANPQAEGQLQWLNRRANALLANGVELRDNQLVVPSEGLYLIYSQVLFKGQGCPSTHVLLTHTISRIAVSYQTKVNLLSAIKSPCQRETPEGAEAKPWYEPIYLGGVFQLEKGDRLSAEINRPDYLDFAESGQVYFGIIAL

## CN1C(=O)c2cccc(OC(F)F)c2[C@H]2C[C@@H]1c1nn3ccc(C4=CCC(C(C)(C)O)OC4)cc3c12 (stereo in doubt) [Example 318, (7R,14S)-1-(difluoromethoxy)-12-((R)-6-(2-hydroxypropan-2-yl)-5,6-dihydro-2H-pyran-3-yl)-6-methyl-6,7-dihydro-7,14-methanobenzo[c]pyrido[1′,2′:1,5]pyrazolo[4,3-f]azocin-5 (14H)-one]
[1]
  IC50: < 25 nM

## CN1C(=O)c2cccc(OC(F)F)c2[C@H]2C[C@@H]1c1nn3ccc(C4=CCC(C(C)(C)O)OC4)cc3c12 (stereo in doubt) [Example 319, (7R,14S)-1-(difluoromethoxy)-12-((S)-6-(2-hydroxypropan-2-yl)-5,6-dihydro-2H-pyran-3-yl)-6-methyl-6,7-dihydro-7,14-methanobenzo[c]pyrido[1′,2′:1,5]pyrazolo[4,3-f]azocin-5 (14H)-one]
[1]
  IC50: < 25 nM

## CN1C(=O)c2cccc(OC(F)F)c2[C@H]2C[C@@H]1c1nc3ccc(-c4cnc([C@]5(N)C[C@@](C)(O)C5)c(F)c4)cc3n12 [Comp. Ex #2, reference compound]
  Emax: 85%
read-out: TNFα reporter, IC50
  IC50: 4.7 nM

## CN1C(=O)c2cccc(OC(F)F)c2[C@H]2C[C@@H]1c1nc3ccc(-c4cnc(C5(O)CCOCC5)nc4)cc3n12 [Comp. Ex #3, reference compound]
  Emax: 70%
read-out: TNFα reporter, IC50
  IC50: 8.2 nM

## CN1C(=O)c2cccc(OC(F)F)c2[C@H]2C[C@@H]1c1nc3ccc(-c4cnc([C@]5(N)C[C@@](C)(C#N)C5)nc4)cc3n12 [Comp. Ex #5, reference compound]
  Emax: 83%
read-out: TNFα reporter, IC50
  IC50: 16.1 nM

## CN1C(=O)c2cccc(OC(F)F)c2[C@H]2C[C@@H]1c1nc3ccc(-c4cnc([C@]5(O)C[C@@](C)(O)C5)nc4)cc3n12 [Comp. Ex #6, reference compound]
  Emax: 82%
read-out: TNFα reporter, IC50
  IC50: 5.2 nM

## CN1C(=O)c2cccc(OC(F)F)c2[C@H]2C[C@@H]1c1nc3ccc(-c4cnc([C@]5(N)C[C@@](C)(CO)C5)nc4)cc3n12 [Comp. Ex #7, reference compound]
  Emax: 92%
read-out: TNFα reporter, IC50
  IC50: 4.2 nM

## CN1C(=O)c2cccc(OC(F)F)c2[C@H]2C[C@@H]1c1nc3ccc(-c4cnc([C@]5(N)C[C@@](C)(C#N)C5)c(F)c4)cc3n12 [Comp. Ex #8, reference compound]
  Emax: 80%
read-out: TNFα reporter, IC50
  IC50: 5.3 nM

## CN1C(=O)c2cccc(OC(F)F)c2C2CC1c1nn3ccc(-c4cnc(C5(N)CCC5)nc4)nc3c12 (centres unmarked) [Example 1, 12-(2-(1-aminocyclobutyl)pyrimidin-5-yl)-1-(difluoromethoxy)-6-methyl-6,7-dihydro-7,14-methanobenzo[c]pyrimido[1′,2′:1,5]pyrazolo[4,3-f]azocin-5 (14H)-one]
[1]
  IC50: 25 to 100 nM

## CN1C(=O)c2cccc(OC(F)F)c2[C@@H]2C[C@H]1c1nn3ccc(-c4cnc(C5(N)CCC5)nc4)nc3c12 [Example 2, (7S,14R)-12-(2-(1-aminocyclobutyl)pyrimidin-5-yl)-1-(difluoromethoxy)-6-methyl-6,7-dihydro-7,14-methanobenzo[c]pyrimido[1′,2′:1,5]pyrazolo[4,3-f]azocin-5 (14H)-one]
[1]
  IC50: 100 to 1000 nM

## CN1C(=O)c2cccc(OC(F)F)c2[C@H]2C[C@@H]1c1nn3ccc(-c4cnc(C5(N)CCC5)nc4)nc3c12 [Example 3, (7R,14S)-12-(2-(1-aminocyclobutyl)pyrimidin-5-yl)-1-(difluoromethoxy)-6-methyl-6,7-dihydro-7,14-methanobenzo[c]pyrimido[1′,2′:1,5]pyrazolo[4,3-f]azocin-5 (14H)-one]
[1]
  IC50: < 25 nM

## CN1C(=O)c2cccc(OC(F)F)c2[C@H]2C[C@@H]1c1nn3ccc(-c4cnc(C5(O)CC(C)(C#N)C5)nc4)nc3c12 (stereo partly drawn) [Example 4, (1R,3s)-3-(5-((7R,14S)-1-(difluoromethoxy)-6-methyl-5-oxo-5,6,7,14-tetrahydro-7,14-methanobenzo[c]pyrimido[1′,2′:1,5]pyrazolo[4,3-f]azocin-12-yl)pyrimidin-2-yl)-3-hydroxy-1-methylcyclobutane-1-carbonitrile]
[1]
  IC50: < 25 nM

## CN1C(=O)c2cccc(OC(F)F)c2[C@H]2C[C@@H]1c1nn3ccc(-c4cnc([C@]5(C#N)C[C@@](C)(O)C5)nc4)nc3c12 [Example 5, (1r,3S)-1-(5-((7R,14S)-1-(difluoromethoxy)-6-methyl-5-oxo-5,6,7,14-tetrahydro-7,14-methanobenzo[c]pyrimido[1′,2′:1,5]pyrazolo[4,3-f]azocin-12-yl)pyrimidin-2-yl)-3-hydroxy-3-methylcyclobutane-1-carbonitrile]
[1]
  IC50: < 25 nM

## CN1C(=O)c2cccc(OC(F)F)c2[C@H]2C[C@@H]1c1nn3ccc(-c4cnc(C5(N)CC5)nc4)nc3c12 [Example 6, (7R,14S)-12-(2-(1-aminocyclopropyl)pyrimidin-5-yl)-1-(difluoromethoxy)-6-methyl-6,7-dihydro-7,14-methanobenzo[c]pyrimido[1′,2′:1,5]pyrazolo[4,3-f]azocin-5 (14H)-one]
[1]
  IC50: < 25 nM

## CN1C(=O)c2cccc(OC(F)F)c2[C@H]2C[C@@H]1c1nn3ccc(-c4cnc([C@]5(N)C[C@@](C)(C#N)C5)nc4)nc3c12 [Example 7, (1R,3s)-3-amino-3-(5-((7R,14S)-1-(difluoromethoxy)-6-methyl-5-oxo-5,6,7,14-tetrahydro-7,14-methanobenzo[c]pyrimido[1′,2′:1,5]pyrazolo[4,3-f]azocin-12-yl)pyrimidin-2-yl)-1-methylcyclobutane-1-carbonitrile]
[1]
  IC50: < 25 nM

## CN1C(=O)c2cccc(OC(F)F)c2[C@H]2C[C@@H]1c1nn3ccc(C4=CCC(C(C)(C)O)CC4)nc3c12 (stereo partly drawn) [Example 8, (7R,14S)-1-(difluoromethoxy)-12-(4-(2-hydroxypropan-2-yl)cyclohex-1-en-1-yl)-6-methyl-6,7-dihydro-7,14-methanobenzo[c]pyrimido[1′,2′:1,5]pyrazolo[4,3-f]azocin-5 (14H)-one]
[1]
  IC50: 25 to 100 nM

## CN1C(=O)c2cccc(OC(F)F)c2[C@H]2C[C@@H]1c1nn3ccc(-c4cnc([C@]5(N)C[C@@](C)(O)C5)nc4)nc3c12 [Example 9, (7R,14S)-12-(2-((1s,3R)-1-amino-3-hydroxy-3-methylcyclobutyl)pyrimidin-5-yl)-1-(difluoromethoxy)-6-methyl-6,7-dihydro-7,14-methanobenzo[c]pyrimido[1′,2′:1,5]pyrazolo[4,3-f]azocin-5 (14H)-one]
[1]
  IC50: < 25 nM

## CN1C(=O)c2cccc(OC(F)F)c2[C@H]2C[C@@H]1c1nn3ccc(-c4cnc([C@]5(N)C[C@@](C)(CO)C5)nc4)nc3c12 [Example 10, (7R,14S)-12-(2-((1s,3R)-1-amino-3-(hydroxymethyl)-3-methylcyclobutyl)pyrimidin-5-yl)-1-(difluoromethoxy)-6-methyl-6,7-dihydro-7,14-methanobenzo[c]pyrimido[1′,2′:1,5]pyrazolo[4,3-f]azocin-5 (14H)-one]
[1]
  IC50: < 25 nM
  Emax: 93%
read-out: TNFα reporter, IC50
  IC50: 12.7 nM

## CN1C(=O)c2cccc(OC(F)F)c2[C@H]2C[C@@H]1c1nn3ccc(-c4cnc(C(C)(C)O)nc4)nc3c12 [Example 11, (7R,14S)-1-(difluoromethoxy)-12-(2-(2-hydroxypropan-2-yl)pyrimidin-5-yl)-6-methyl-6,7-dihydro-7,14-methanobenzo[c]pyrimido[1′,2′:1,5]pyrazolo[4,3-f]azocin-5 (14H)-one]
[1]
  IC50: 25 to 100 nM

## CN1C(=O)c2cccc(OC(F)F)c2[C@H]2C[C@@H]1c1nn3ccc(-c4cnc(C5(O)CCOC5)nc4)nc3c12 (stereo partly drawn) [Example 12, (7R,14S)-1-(difluoromethoxy)-12-(2-(3-hydroxytetrahydrofuran-3-yl)pyrimidin-5-yl)-6-methyl-6,7-dihydro-7,14-methanobenzo[c]pyrimido[1′,2′:1,5]pyrazolo[4,3-f]azocin-5 (14H)-one]
[1]
  IC50: 25 to 100 nM

## CN1C(=O)c2cccc(OC(F)F)c2[C@H]2C[C@@H]1c1nn3ccc(-c4ccc(P(C)(C)=O)nc4)nc3c12 [Example 13, (7R,14S)-1-(difluoromethoxy)-12-(6-(dimethylphosphoryl)pyridin-3-yl)-6-methyl-6,7-dihydro-7,14-methanobenzo[c]pyrimido[1′,2′:1,5]pyrazolo[4,3-f]azocin-5 (14H)-one]
[1]
  IC50: < 25 nM

From patent US12410179B2, “Modulators of TNF alpha activity and uses thereof” (RayThera, Inc., priority 2023, dated 2025)
